Measured values reported in the NIST ThermoML archive (doi:10.1021/acs.jced.8b00132).
Several values for one entry are separate records, joined by “and”; a condition that tells them apart may be missing. Identical values can stand only once.

Conditions: Liquid, transient hot wire

O=C(C(F)(F)C(F)(F)F)C(F)(C(F)(F)F)C(F)(F)F [dodecafluoro-2-methylpentan-3-one]
Conditions	thermal conductivity
192.97 K, 9415 kPa	0.07862 W/m/K
192.97 K, 9417 kPa	0.07861 W/m/K
192.98 K, 6038 kPa	0.0783 W/m/K
192.98 K, 6049 kPa	0.07834 W/m/K
192.99 K, 167 kPa	0.07692 W/m/K
192.99 K, 173 kPa	0.07695 W/m/K
193 K, 151 kPa	0.07702 W/m/K
193 K, 154 kPa	0.07718 W/m/K
193.29 K, 67553 kPa	0.08802 W/m/K
193.29 K, 67565 kPa	0.0877 W/m/K
193.3 K, 61029 kPa	0.08639 W/m/K
193.31 K, 52610 kPa	0.086 W/m/K
193.31 K, 52615 kPa	0.08604 W/m/K
193.31 K, 61018 kPa	0.08674 W/m/K
193.33 K, 44206 kPa	0.08413 W/m/K
193.33 K, 44213 kPa	0.08424 W/m/K
193.35 K, 36147 kPa	0.08312 W/m/K
193.35 K, 36154 kPa	0.08322 W/m/K
193.37 K, 28301 kPa	0.08185 W/m/K
193.37 K, 28302 kPa	0.08165 W/m/K
193.42 K, 20237 kPa	0.08068 W/m/K
193.43 K, 20237 kPa	0.08099 W/m/K
193.45 K, 13265 kPa	0.07982 W/m/K
193.45 K, 13266 kPa	0.07945 W/m/K
193.48 K, 6427 kPa	0.07813 W/m/K
193.48 K, 6455 kPa	0.07812 W/m/K
193.51 K, 179 kPa	0.07701 W/m/K
193.52 K, 180 kPa	0.07688 W/m/K
211.41 K, 165 kPa	0.07448 W/m/K
211.41 K, 170 kPa	0.07442 W/m/K
211.41 K, 5799 kPa	0.07599 W/m/K
211.41 K, 5800 kPa	0.0759 W/m/K
211.41 K, 12664 kPa	0.07737 W/m/K
211.41 K, 12666 kPa	0.07746 W/m/K
211.41 K, 19434 kPa	0.07882 W/m/K and 0.07893 W/m/K
211.43 K, 26838 kPa	0.08023 W/m/K
211.43 K, 26842 kPa	0.08059 W/m/K
211.43 K, 34778 kPa	0.08175 W/m/K
211.43 K, 34786 kPa	0.0823 W/m/K
211.76 K, 52040 kPa	0.08466 W/m/K
211.76 K, 52042 kPa	0.08451 W/m/K
211.77 K, 60806 kPa	0.08612 W/m/K
211.77 K, 60808 kPa	0.0862 W/m/K
211.77 K, 67154 kPa	0.087 W/m/K
211.78 K, 67150 kPa	0.08734 W/m/K
211.8 K, 12660 kPa	0.07728 W/m/K
211.8 K, 19446 kPa	0.07881 W/m/K
211.8 K, 19450 kPa	0.07869 W/m/K
211.81 K, 173 kPa	0.07406 W/m/K
211.81 K, 5801 kPa	0.07566 W/m/K
211.81 K, 5813 kPa	0.07576 W/m/K
211.81 K, 12660 kPa	0.0775 W/m/K
211.81 K, 26841 kPa	0.07965 W/m/K
211.81 K, 26845 kPa	0.08017 W/m/K
211.81 K, 34792 kPa	0.08166 W/m/K
211.81 K, 34801 kPa	0.08137 W/m/K
211.81 K, 43011 kPa	0.08307 W/m/K
211.81 K, 43012 kPa	0.0834 W/m/K
211.82 K, 163 kPa	0.07354 W/m/K
212.17 K, 60783 kPa	0.08526 W/m/K
212.17 K, 60795 kPa	0.08562 W/m/K
212.17 K, 67130 kPa	0.08706 W/m/K
212.18 K, 52048 kPa	0.08429 W/m/K
212.18 K, 52063 kPa	0.08422 W/m/K
212.18 K, 67138 kPa	0.08699 W/m/K
212.23 K, 26847 kPa	0.0801 W/m/K
212.23 K, 34793 kPa	0.08106 W/m/K
212.23 K, 34794 kPa	0.08097 W/m/K
212.23 K, 43021 kPa	0.08227 W/m/K
212.24 K, 12668 kPa	0.07725 W/m/K
212.24 K, 19437 kPa	0.07855 W/m/K
212.24 K, 26845 kPa	0.07971 W/m/K
212.25 K, 12667 kPa	0.07727 W/m/K
212.26 K, 5796 kPa	0.07549 W/m/K
212.27 K, 173 kPa	0.0737 W/m/K
212.27 K, 5805 kPa	0.07454 W/m/K
212.28 K, 168 kPa	0.07378 W/m/K
212.61 K, 67097 kPa	0.08653 W/m/K
212.61 K, 67117 kPa	0.08664 W/m/K
212.62 K, 52074 kPa	0.0837 W/m/K
212.62 K, 60785 kPa	0.08529 W/m/K
212.62 K, 60787 kPa	0.08543 W/m/K
212.63 K, 52063 kPa	0.08349 W/m/K
212.68 K, 43009 kPa	0.08278 W/m/K
212.68 K, 43023 kPa	0.08262 W/m/K
212.69 K, 34811 kPa	0.08103 W/m/K
212.7 K, 26854 kPa	0.0791 W/m/K
212.7 K, 34796 kPa	0.08096 W/m/K
212.71 K, 19432 kPa	0.07795 W/m/K
212.71 K, 26846 kPa	0.07958 W/m/K
212.72 K, 19443 kPa	0.07837 W/m/K
212.73 K, 12670 kPa	0.07626 W/m/K
212.73 K, 12671 kPa	0.0764 W/m/K
212.75 K, 5793 kPa	0.07492 W/m/K
212.75 K, 5801 kPa	0.0748 W/m/K
212.77 K, 172 kPa	0.07396 W/m/K
212.79 K, 181 kPa	0.07378 W/m/K
213.1 K, 67106 kPa	0.08599 W/m/K and 0.08628 W/m/K
213.11 K, 60772 kPa	0.08539 W/m/K
213.11 K, 60780 kPa	0.08539 W/m/K
213.13 K, 52081 kPa	0.08389 W/m/K
213.13 K, 52089 kPa	0.08383 W/m/K
213.19 K, 43027 kPa	0.08245 W/m/K
213.19 K, 43036 kPa	0.08268 W/m/K
213.21 K, 34805 kPa	0.08073 W/m/K
213.21 K, 34810 kPa	0.08114 W/m/K
213.23 K, 26845 kPa	0.07947 W/m/K
213.24 K, 26846 kPa	0.07959 W/m/K
213.25 K, 19430 kPa	0.07775 W/m/K
213.25 K, 19435 kPa	0.0774 W/m/K
213.27 K, 12661 kPa	0.07617 W/m/K
213.28 K, 12679 kPa	0.0761 W/m/K
213.31 K, 5806 kPa	0.07469 W/m/K
213.31 K, 5813 kPa	0.07468 W/m/K
213.33 K, 173 kPa	0.07373 W/m/K
213.33 K, 180 kPa	0.07364 W/m/K
213.62 K, 67087 kPa	0.08645 W/m/K
213.63 K, 67097 kPa	0.08628 W/m/K
213.64 K, 60766 kPa	0.08543 W/m/K
213.65 K, 60770 kPa	0.08553 W/m/K
213.67 K, 52073 kPa	0.08388 W/m/K
213.67 K, 52074 kPa	0.08401 W/m/K
213.74 K, 43029 kPa	0.08234 W/m/K
213.75 K, 43019 kPa	0.08232 W/m/K
241.26 K, 25699 kPa	0.0759 W/m/K
241.27 K, 25696 kPa	0.07599 W/m/K
241.32 K, 12027 kPa	0.07227 W/m/K and 0.07234 W/m/K
241.33 K, 18761 kPa	0.07423 W/m/K
241.33 K, 18763 kPa	0.0739 W/m/K
241.38 K, 209 kPa	0.06892 W/m/K and 0.06884 W/m/K
241.39 K, 5841 kPa	0.07049 W/m/K
241.39 K, 5844 kPa	0.07044 W/m/K
241.62 K, 33678 kPa	0.07765 W/m/K
241.63 K, 33700 kPa	0.07761 W/m/K
241.64 K, 41986 kPa	0.0795 W/m/K
241.65 K, 41994 kPa	0.07941 W/m/K
241.65 K, 50824 kPa	0.0813 W/m/K
241.65 K, 50825 kPa	0.08126 W/m/K
241.66 K, 60321 kPa	0.08312 W/m/K
241.66 K, 60336 kPa	0.08322 W/m/K
241.67 K, 25701 kPa	0.07567 W/m/K
241.68 K, 25692 kPa	0.0752 W/m/K
241.68 K, 68451 kPa	0.08416 W/m/K
241.68 K, 68475 kPa	0.0844 W/m/K
241.74 K, 18761 kPa	0.07395 W/m/K
241.75 K, 12028 kPa	0.07237 W/m/K
241.75 K, 18761 kPa	0.07396 W/m/K
241.76 K, 12022 kPa	0.07209 W/m/K
241.83 K, 210 kPa	0.06806 W/m/K
241.83 K, 5847 kPa	0.06983 W/m/K
241.84 K, 211 kPa	0.06786 W/m/K
241.84 K, 5846 kPa	0.07 W/m/K
242.08 K, 33680 kPa	0.0771 W/m/K
242.08 K, 60313 kPa	0.08307 W/m/K
242.09 K, 33695 kPa	0.07709 W/m/K
242.09 K, 41985 kPa	0.07857 W/m/K
242.09 K, 50804 kPa	0.081 W/m/K
242.09 K, 50825 kPa	0.08098 W/m/K
242.1 K, 41988 kPa	0.07839 W/m/K
242.1 K, 60314 kPa	0.08294 W/m/K
242.1 K, 68448 kPa	0.08374 W/m/K
242.11 K, 68433 kPa	0.08377 W/m/K
242.14 K, 25700 kPa	0.07474 W/m/K
242.14 K, 25703 kPa	0.07481 W/m/K
242.23 K, 18760 kPa	0.07343 W/m/K
242.23 K, 18761 kPa	0.07341 W/m/K
242.24 K, 12027 kPa	0.07149 W/m/K
242.24 K, 12030 kPa	0.07138 W/m/K
